Changes are numbered by the printed parent chain.
What was measured:
Experiment in all cases: Picrotoxin inhibition of GABA responses, two electrode voltage clamp in Xenopus oocytes
Assay type in all cases: cell-based
[1] = target: T1, T6′M mutant Drosophila RDL receptor (Drosophila melanogaster, UniProt P25123, T305M)
T1 construct: expressed in transfected cells; host or cells: Xenopus laevis oocytes injected with cRNA
T1 sequence (P25123 45-606 T305M): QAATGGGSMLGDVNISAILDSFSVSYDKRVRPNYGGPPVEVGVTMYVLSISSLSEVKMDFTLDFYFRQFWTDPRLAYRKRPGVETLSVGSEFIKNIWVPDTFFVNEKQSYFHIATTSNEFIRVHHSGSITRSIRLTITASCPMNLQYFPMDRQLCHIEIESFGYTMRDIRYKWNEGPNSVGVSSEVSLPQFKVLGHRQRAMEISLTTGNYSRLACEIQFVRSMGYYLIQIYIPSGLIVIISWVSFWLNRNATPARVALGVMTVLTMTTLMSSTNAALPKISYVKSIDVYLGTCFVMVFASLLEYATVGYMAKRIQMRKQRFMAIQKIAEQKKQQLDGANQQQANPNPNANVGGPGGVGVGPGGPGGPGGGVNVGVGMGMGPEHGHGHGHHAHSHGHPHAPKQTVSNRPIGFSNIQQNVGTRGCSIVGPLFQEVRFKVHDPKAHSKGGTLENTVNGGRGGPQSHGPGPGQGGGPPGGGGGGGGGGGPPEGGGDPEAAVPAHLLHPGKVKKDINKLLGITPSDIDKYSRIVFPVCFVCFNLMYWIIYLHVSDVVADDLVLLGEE
Procedure: (§1) X. laevis oocyte-positive females were purchased from NASCO (Fort Atkinson, Wisconsin, USA) and maintained according to standard methods. Harvested stage V-VI Xenopus oocytes were washed in four changes of ND96 (96 mM NaCl, 2 mM KCl, 1 mM MgCl2, 1 mM CaCl2, 5 mM HEPES, pH 7.5), de-folliculated in 1.5 mg ml^−1 collagenase Type 1A for approximately 2 h, washed again in four changes of ND96 and stored in ND96 containing 2.5 mM sodium pyruvate, 0.7 mM theophylline and […].
(§2) Drosophila RDL subunit cDNA (kindly gifted from N.Millar) was subcloned into pGEMHE for oocyte expression as previously described ([McGonigle and Lummis, 2010], [Millar et al., 1994]). Site directed mutagenesis was performed with the QuikChange mutagenesis kit (Agilent, La Jolla, CA). cRNA was transcribed in vitro from linearised pGEMHE cDNA template using the mMessage mMachine T7 Transcription kit (Ambion, Austin, Texas, USA). Stage V and VI oocytes were injected with 5 ng cRNA, incubated at 18 °C, and currents recorded 18–24 h post-injection.
(§3) Xenopus oocytes were clamped at −60 mV using an OC-725 amplifier (Warner Instruments, Connecticut, USA), Digidata 1322A and the Strathclyde Electrophysiology Software Package (Department of Physiology and Pharmacology, University of Strathclyde, UK), or using the Roboocyte (MultiChannel Systems). Currents were recorded at 5 kHz and filtered at a frequency of 1 kHz. Micro-electrodes were fabricated from borosilicate glass (GC120TF-10, Harvard Apparatus, Edenbridge, Kent, UK) using a one stage horizontal pull (P-87, Sutter Instrument Company, California, USA) and filled with 3 M KCl. Pipette resistances ranged from 1.0 to 2.0 MΩ. Oocytes were perfused with ND96 at a constant rate of 12 ml min^−1. Drug application was via a simple gravity fed system calibrated to run at the same rate.
(§4) Analysis and curve fitting was performed using Prism v5 (GraphPad Software, San Diego, California, USA). Concentration-response data for each oocyte was normalised to the maximum current for that oocyte. The mean and S.E.M. for a series of oocytes were fitted to the four parameter logistic equation in Prism.

[2] = target: T2, 4M2 mutant Drosophila RDL receptor (N-7′H, T6′M, A20′S and A21′Q) (Drosophila melanogaster, UniProt P25123, A319S/A320Q/N292H/T305M); settings: 4M2 RDL
T2 construct: expressed in transfected cells; host or cells: Xenopus laevis oocytes injected with cRNA
T2 sequence (P25123 45-606 N292H/T305M/A319S/A320Q): T1 sequence (P25123 45-606 T305M) with N248H, A275S, A276Q
Procedure: as §1, §2, §3, §4

[3] = target: T3, A21′Q mutant Drosophila RDL receptor (Drosophila melanogaster, UniProt P25123, A320Q)
T3 construct: expressed in transfected cells; host or cells: Xenopus laevis oocytes injected with cRNA
T3 sequence (P25123 45-606 A320Q): T1 sequence (P25123 45-606 T305M) with M261T, A276Q
Procedure: as §1, §2, §3, §4

[4] = inhibition of GABA responses, read-out: Picrotoxin pIC50 (converted)

picrotoxin was tested, and the “Sensitivity to PTX” value ([1]; PTX up to 100 μM) was “insensitive”, the IC50 [1, 4] was > 100 µM and the “Sensitivity to PTX” value ([2]; PTX up to 100 μM) was “insensitive”. For the same substance, the IC50 [2, 4] was > 100 µM, the IC50 [3] was 0.36 µM and the “Picrotoxin pIC50” value [3] was 6.45 ± 0.25.

— PMC4261083, “An atypical residue in the pore of Varroa destructor GABA-activated RDL receptors affects picrotoxin block and thymol modulation” (Insect Biochemistry and Molecular Biology, 2014)
